Experimental data: patent publication US20080113938A1, “ACCELERATOR FOR MINERAL ABSORPTION AND USE THEREOF” (KABUSHIKI KAISHA HAYASHIBARA SEIBUTSU KAGAKU KENKYUJO, priority 2003, published 2008)
Marks after values point to notes of the source that are not given here.

Key:
femur = test: Dry weight, ash, calcium, magnesium and phosphorus of the femur of rats; type: in vivo, Wister rats
Description: Forty of Wister rats weighing 110 to 120 g (five-weeks aged male, commercialized by Charles River Japan Inc., Yokohama, Japan) were bred with a feed containing ingredients (%) shown in Table 1 for one week in order to be familiarized. The familiarized rats were randomly divided into four groups with ten rats each. Each group was experimentally bred for eight weeks with either a feed without cyclic tetrasaccharide shown in Table 1 (hereinafter, it is called as “basic feed”), or another feed of basic feed supplemented with 1%, 2% or 5% on a dry solid basis, of cyclic tetrasaccharide in a crystalline anhydrous powder form with a purity of 99.5%, prepared in the following Example A-3. These basic feed and three kinds of feeds with cyclic tetrasaccharide were prepared to contain 44.75% of the total amount of cyclic tetrasaccharide and corn starch in each feed. From one week before the end of the breeding test, in order to determine the metabolism of calcium, magnesium, iron, sodium, potassium and phosphorus (hereinafter, may be called “minerals” in all), rats in the all groups were fed with the four types of feeds supplemented with 0.5% of chromium oxide as a non-absorbed marker for the minerals. The rats were bred at 25° C. in a manner of freely allowing to take feeds and water under a condition of 12 hours regular interval between of light and shade. After completion of experimental breeding, all rats were individually weighed to calculate the average of weight and further calculate the rate of increased weight for each group.
Two days before the end of the breeding test, rats were placed into a gauge for measuring metabolism to collect their excrement in two days. The resulting excrement was subjected to the measurement of the contents of cyclic tetrasaccharide, each mineral, and chromium. After the breeding test, the rats were anatomized in an anesthetized condition to take out their alimentary canals including jejunum, intestinum ileum, appendix and colon/rectum. After the resulting alimentary canals were weighed, their contents were also weighed and subjected to the measurement of the amount of cyclic tetrasaccharide, minerals and chromium. The rats, which had been taken out their alimentary canals, were dislocated at their cervical vertebrae and taken out their femurs from right legs. The resulting femurs were subjected to the measurement of the amount of ashes, calcium, magnesium and phosphorus. The following(s) explain the methods of quantitative analysis of cyclic tetrasaccharide and the methods of measurement of minerals and chromium.
Two grams of a feed was preciously weighed in a porcelain crucible, heated to carbonize, and heated at 600° C. to incinerate. After weighed, the resulting test samples were admixed with hydrochloric acid in a precious analysis grade (concentration of 20%, commercialized by Wako Pure Chemicals, Co., Ltd., Osaka, Japan) to give a final concentration of 1%. They were subjected to atomic absorption spectrometry (“Zeeman5100™”, commercialized by PerkinElmer); in the case of measurement of chromium, they were subjected to a flameless type one. In the case of measurement of phosphorus, they were subjected to usual molybdenum blue absorptiometry. On the other hand, 0.1 g of each of the contents of jejunum, intestinum ileum, appendix, colon/rectum, and excrement was subjected to wet-type incineration to prepare test samples similarly as in the above case of feed, and the test samples were quantified. The right femurs taken out from the anatomized rats were dried at 105° C. for 15 hours and measured as a dry weight. The resulting dried femurs were precisely weighed in a porcelain crucible, and incinerated similarly as in the case of the feed. The resultants were weighed and quantified for calcium, magnesium and phosphorus.

[1] = system: reversed canal sac of jejunum; test: Calcium absorption in reversed canal sac, jejunum; type: cell-based, Wister rats
Experimental: (§1) Experiment 1 confirmed that cyclic tetrasaccharide promotes mineral absorption in alimentary canal of rat concretely in intestinum ileum or its upper alimentary canal. The following experiment was carried out in order to determine a part of alimentary canal, cyclic tetrasaccharide acts on to promote mineral absorption. Twenty heads of Wister rats (nine week aged male, commercialized by Charlesriver Corporation, Kanagawa, Japan) were bred for three days with a usual solid feed for rats. Under the anesthetization with ether, alimentary canal was taken out from each rat which had been bled from a jugular vein and treated by abdominal operation. Each alimentary canal was divided into jejunum, intestinum ileum and colon/rectum and washed with physiological saline to remove the content. The resulting jejunum specimen, intestinum ileum specimen or colon/rectum specimen was cut off to prepare each midsection sized with about 10 cm in length. The resulting midsection of each specimen was reversed using a glass rod and immersed in a physiological saline babbled with gas consisting of 95% oxygen and 5% carbon dioxide. The resultant was cut into pieces sized with 5 cm in length and each piece was tied with a suture thread at both ends to prepare a reversed canal sac, and injected with about 0.5 ml of an internal sac solution containing 30 mM Tris-HCl buffer (pH7.4), 125 mM sodium chloride, 4 mM potassium chloride, 10 mM glucose and 1.25 mM calcium chloride (dihydrate) with a syringe and weighed. The resulting sac was immersed in an external sac solution (being bubbled with the gas consisting of 95% oxygen and 5% carbon dioxide) containing 50 mM, 100 mM or 200 mM of the same cyclic tetrasaccharide to Experiment 1 in the above solution containing 30 mM Tris-HCl buffer (pH7.4), 125 mM sodium chloride, 4 mM potassium chloride, 10 mM glucose and 1.25 mM calcium chloride (dihydrate). At 15 or 30 minutes after the immersion, the reversed canal sac was taken out from the solution and washed with distilled water. The internal sac solution was collected from the resulting sac and admixed with distilled water to give a final volume of 25 ml. The resulting solution was subjected to a calorimetric measurement of calcium content using “CALCIUM TEST C WAKO™” (commercialized by Wako Pure Chemicals Corporation, Osaka, Japan). As a negative control, an external sac solution without saccharides. As a positive control, an external sac solution containing 200 mM maltitol, reported to have the effect on promoting mineral absorption though intestinal canal, instead of cyclic tetrasaccharide were prepared and carried out in the same manner. Speed of calcium absorption (nmol/min·cm^2) and its relative values defining the value of negative control as 100 were calculated.

[2] = system: reversed canal sac of intestinum ileum; test: Calcium absorption in reversed canal sac, intestinum ileum; type: cell-based, Wister rats
Experimental: as §1

[3] = system: reversed canal sac of colon/rectum; test: Calcium absorption in reversed canal sac, colon/rectum; type: cell-based, Wister rats
Experimental: as §1

[4] = feed supplemented with 1% cyclic tetrasaccharide
[5] = feed supplemented with 2% cyclic tetrasaccharide
[6] = feed supplemented with 5% cyclic tetrasaccharide
[7] = 50 mM saccharide in external sac solution
[8] = 100 mM saccharide in external sac solution
[9] = 200 mM saccharide in external sac solution

What does the source list for `OC[C@H]1O[C@@H]2OC[C@H]3O[C@H](O[C@@H]4[C@@H](O)[C@@H](OC[C@H]5O[C@H](O[C@H]([C@H]2O)[C@@H]1O)[C@H](O)[C@@H](O)[C@@H]5O)O[C@H](CO)[C@H]4O)[C@H](O)[C@@H](O)[C@@H]3O` [cyclic tetrasaccharide, cyclo{>6)-α-D-glucopyranosyl-(1>3)-α-D-glucopyranosyl-(1>6)-α-D-glucopyranosyl-(1>3)-α-D-glucopyranosyl-(1>}]?
amounts of dried bone weight, ash, calcium, magnesium and phosphorus (femur; comparing with the control, 1%, 2%, 5% feeds): significantly increased; Amount of ash (femur; [4]): 0.64 * g/g dry femur; Amount of calcium in femur (femur; [4]): 217 * ^ mg/g dry femur; Amount of magnesium in femur (femur; [4]): 4.3 * mg/g dry femur; Amount of phosphorus in femur (femur; [4]): 115 * ^ mg/g dry femur; Dry weight of femur (femur; [4]): 0.68 * g; Amount of ash (femur; [5]): 0.65 * g/g dry femur; Amount of calcium in femur (femur; [5]): 225 * ^ mg/g dry femur; Amount of magnesium in femur (femur; [5]): 4.4 * mg/g dry femur; Amount of phosphorus in femur (femur; [5]): 116 * ^ mg/g dry femur; Dry weight of femur (femur; [5]): 0.71 * g; Amount of ash (femur; [6]): 0.66 * g/g dry femur; Amount of calcium in femur (femur; [6]): 240 * ^ mg/g dry femur; Amount of magnesium in femur (femur; [6]): 4.5 * mg/g dry femur; Amount of phosphorus in femur (femur; [6]): 118 * ^ mg/g dry femur; Dry weight of femur (femur; [6]): 0.71 * g; Absorption speed of calcium in alimentary canal sac, Jejunum [1, 7]: 26.5 *※ nmol/min · cm^2; Relative value of calcium absorption speed (control = 100), Jejunum [1, 7]: (124); Absorption speed of calcium in alimentary canal sac, Jejunum [1, 8]: 37.6 *※ nmol/min · cm^2; Relative value of calcium absorption speed (control = 100), Jejunum [1, 8]: (176); Absorption speed of calcium in alimentary canal sac, Jejunum [1, 9]: 39.0 *※ nmol/min · cm^2; Relative value of calcium absorption speed (control = 100), Jejunum [1, 9]: (183); promotion of calcium absorption in jejunum ([1]; reversed sac): strongly promoted; Absorption speed of calcium in alimentary canal sac, Intestinum ileum [2, 7]: 33.6 *※ nmol/min · cm^2; Relative value of calcium absorption speed (control = 100), Intestinum ileum [2, 7]: (124); Absorption speed of calcium in alimentary canal sac, Intestinum ileum [2, 8]: 46.0 *※ nmol/min · cm^2; Relative value of calcium absorption speed (control = 100), Intestinum ileum [2, 8]: (167); Absorption speed of calcium in alimentary canal sac, Intestinum ileum [2, 9]: 52.9 *※ nmol/min · cm^2; Relative value of calcium absorption speed (control = 100), Intestinum ileum [2, 9]: (195); promotion of calcium absorption in intestinum ileum ([2]; reversed sac): strongly promoted; Absorption speed of calcium in alimentary canal sac, Colon/Rectum [3, 7]: 13.5 ※ nmol/min · cm^2; Relative value of calcium absorption speed (control = 100), Colon/Rectum [3, 7]: (101); Absorption speed of calcium in alimentary canal sac, Colon/Rectum [3, 8]: 14.6 *※ nmol/min · cm^2; Relative value of calcium absorption speed (control = 100), Colon/Rectum [3, 8]: (109); Absorption speed of calcium in alimentary canal sac, Colon/Rectum [3, 9]: 15.4 *※ nmol/min · cm^2; Relative value of calcium absorption speed (control = 100), Colon/Rectum [3, 9]: (116); promotion of calcium absorption in colon/rectum ([3]; reversed sac): slightly
